Laboratory results: ChEMBL document CHEMBL3885881, “DrugMatrix”

Species on record: Rattus norvegicus
Experiment: DrugMatrix - Regimen: Daily Repeat
Type: toxicity, organism-based, Sprague-Dawley
Set-up: regimen Daily Repeat, gender Male, age 6-8 weeks
Conditions: in vivo, po, route oral GAVAGE, vehicle .5 % CMC; for BASOPHIL / EOSINOPHIL / ERYTHROCYTE COUNT / HEMATOCRIT / HEMOGLOBIN / LEUKOCYTE COUNT / LYMPHOCYTE / MEAN CORPUSCULAR HEMOGLOBIN / MEAN CORPUSCULAR HEMOGLOBIN CONCENTRATION / MEAN CORPUSCULAR VOLUME / MONOCYTE / NEUTROPHIL / PLATELET COUNT: tissue Blood; for ALANINE AMINOTRANSFERASE / ALBUMIN / ALKALINE PHOSPHATASE / ASPARTATE AMINOTRANSFERASE / BLOOD UREA NITROGEN / CHLORIDE / CHOLESTEROL / CREATINE PHOSPHOKINASE / CREATININE / GLUCOSE / PHOSPHORUS / POTASSIUM / SODIUM / TOTAL BILIRUBIN / TOTAL PROTEIN: tissue Plasma
[1] = 0 mg/kg, 72 h, dose level Control, time 3 day
[2] = 0 mg/kg, 120 h, dose level Control, time 5 day
[3] = 150 mg/kg, 72 h, dose level Low, time 3 day
[4] = 150 mg/kg, 120 h, dose level Low, time 5 day
[5] = 1500 mg/kg, 72 h, dose level High, time 3 day
[6] = 1500 mg/kg, 120 h, dose level High, time 5 day

`C#C[C@]1(O)CC[C@H]2[C@@H]3CCC4=CC(=O)CC[C@]4(C)[C@H]3CC[C@@]21C` [ETHISTERONE] was tested, and the BASOPHIL [1] was 0.68%, the EOSINOPHIL [1] was 0.46% and the “ERYTHROCYTE COUNT” value [1] was 7.15 x10E6/uL. The HEMATOCRIT [1] was 45.44%, the HEMOGLOBIN [1] was 14.1 G/DL and the “LEUKOCYTE COUNT” value [1] was 9.78 x10E3/uL. The LYMPHOCYTE [1] was 84.44%, the “MEAN CORPUSCULAR HEMOGLOBIN” value [1] was 19.72 pg and the “MEAN CORPUSCULAR HEMOGLOBIN CONCENTRATION” value [1] was 31 G/DL. The “MEAN CORPUSCULAR VOLUME” value [1] was 63.66 fL, the MONOCYTE [1] was 2.14% and the NEUTROPHIL [1] was 11.16%. The “PLATELET COUNT” value [1] was 1378.2 x10E3/uL, the “ALANINE AMINOTRANSFERASE” value [1] was 42.33 u/L and the ALBUMIN [1] was 3.8 G/DL. The “ALKALINE PHOSPHATASE” value [1] was 388.17 u/L, the “ASPARTATE AMINOTRANSFERASE” value [1] was 68 u/L and the “BLOOD UREA NITROGEN” value [1] was 16.17 mg/dL. For the same compound, the CHLORIDE [1] was 96.67 MEQ/L, the CHOLESTEROL [1] was 71 mg/dL and the “CREATINE PHOSPHOKINASE” value [1] was 156.17 u/L. For the same compound, the CREATININE [1] was 0.57 mg/dL, the GLUCOSE [1] was 193.67 mg/dL and the PHOSPHORUS [1] was 11.43 mg/dL. The POTASSIUM [1] was 7 MEQ/L, the SODIUM [1] was 140.33 MEQ/L and the “TOTAL BILIRUBIN” value [1] was 0.48 mg/dL. The “TOTAL PROTEIN” value [1] was 6.8 G/DL, the BASOPHIL [2] was 1.47% and the EOSINOPHIL [2] was 1%. For the same compound, the “ERYTHROCYTE COUNT” value [2] was 7.12 x10E6/uL, the HEMATOCRIT [2] was 45.47% and the HEMOGLOBIN [2] was 14.1 G/DL. The “LEUKOCYTE COUNT” value [2] was 11.38 x10E3/uL, the LYMPHOCYTE [2] was 82.57% and the “MEAN CORPUSCULAR HEMOGLOBIN” value [2] was 19.82 pg. The “MEAN CORPUSCULAR HEMOGLOBIN CONCENTRATION” value [2] was 31.02 G/DL, the “MEAN CORPUSCULAR VOLUME” value [2] was 63.88 fL and the MONOCYTE [2] was 2.2%. The NEUTROPHIL [2] was 11.97%, the “PLATELET COUNT” value [2] was 1267 x10E3/uL and the “ALANINE AMINOTRANSFERASE” value [2] was 38 u/L. For the same compound, the ALBUMIN [2] was 3.72 G/DL, the “ALKALINE PHOSPHATASE” value [2] was 391 u/L and the “ASPARTATE AMINOTRANSFERASE” value [2] was 65.83 u/L. For the same compound, the “BLOOD UREA NITROGEN” value [2] was 14.17 mg/dL, the CHLORIDE [2] was 107.67 MEQ/L and the CHOLESTEROL [2] was 61 mg/dL. The “CREATINE PHOSPHOKINASE” value [2] was 148.33 u/L, the CREATININE [2] was 0.57 mg/dL and the GLUCOSE [2] was 177.17 mg/dL. The PHOSPHORUS [2] was 12.07 mg/dL, the POTASSIUM [2] was 7.2 MEQ/L and the SODIUM [2] was 151.5 MEQ/L. For the same compound, the “TOTAL BILIRUBIN” value [2] was 0.58 mg/dL, the “TOTAL PROTEIN” value [2] was 6.72 G/DL and the BASOPHIL [3] was 0.73%. For the same compound, the EOSINOPHIL [3] was 0.33%, the “ERYTHROCYTE COUNT” value [3] was 6.6 x10E6/uL and the HEMATOCRIT [3] was 41.67%. The HEMOGLOBIN [3] was 13.17 G/DL, the “LEUKOCYTE COUNT” value [3] was 10.76 x10E3/uL and the LYMPHOCYTE [3] was 79.57%. The “MEAN CORPUSCULAR HEMOGLOBIN” value [3] was 19.9 pg, the “MEAN CORPUSCULAR HEMOGLOBIN CONCENTRATION” value [3] was 31.57 G/DL and the “MEAN CORPUSCULAR VOLUME” value [3] was 63.13 fL. The MONOCYTE [3] was 3.47%, the NEUTROPHIL [3] was 14.4% and the “PLATELET COUNT” value [3] was 1218.67 x10E3/uL. The “ALANINE AMINOTRANSFERASE” value [3] was 35.67 u/L, the ALBUMIN [3] was 3.57 G/DL and the “ALKALINE PHOSPHATASE” value [3] was 319.33 u/L. The “ASPARTATE AMINOTRANSFERASE” value [3] was 62.67 u/L, the “BLOOD UREA NITROGEN” value [3] was 13.33 mg/dL and the CHLORIDE [3] was 95.33 MEQ/L. The CHOLESTEROL [3] was 60 mg/dL, the “CREATINE PHOSPHOKINASE” value [3] was 132 u/L and the CREATININE [3] was 0.5 mg/dL. For the same compound, the GLUCOSE [3] was 185.33 mg/dL, the PHOSPHORUS [3] was 12.3 mg/dL and the POTASSIUM [3] was 6.3 MEQ/L. For the same compound, the SODIUM [3] was 138.33 MEQ/L, the “TOTAL BILIRUBIN” value [3] was 0.4 mg/dL and the “TOTAL PROTEIN” value [3] was 6.37 G/DL. For the same compound, the BASOPHIL [4] was 0.93%, the EOSINOPHIL [4] was 0.27% and the “ERYTHROCYTE COUNT” value [4] was 7.3 x10E6/uL. For the same compound, the HEMATOCRIT [4] was 45.67%, the HEMOGLOBIN [4] was 14.1 G/DL and the “LEUKOCYTE COUNT” value [4] was 8.86 x10E3/uL. For the same compound, the LYMPHOCYTE [4] was 86.5%, the “MEAN CORPUSCULAR HEMOGLOBIN” value [4] was 19.3 pg and the “MEAN CORPUSCULAR HEMOGLOBIN CONCENTRATION” value [4] was 30.87 G/DL. For the same compound, the “MEAN CORPUSCULAR VOLUME” value [4] was 62.6 fL, the MONOCYTE [4] was 2.7% and the NEUTROPHIL [4] was 8.87%. For the same compound, the “PLATELET COUNT” value [4] was 1265.33 x10E3/uL, the “ALANINE AMINOTRANSFERASE” value [4] was 35.67 u/L and the ALBUMIN [4] was 3.6 G/DL. For the same compound, the “ALKALINE PHOSPHATASE” value [4] was 382.67 u/L, the “ASPARTATE AMINOTRANSFERASE” value [4] was 57.67 u/L and the “BLOOD UREA NITROGEN” value [4] was 14.33 mg/dL. For the same compound, the CHLORIDE [4] was 105.67 MEQ/L, the CHOLESTEROL [4] was 39.67 mg/dL and the “CREATINE PHOSPHOKINASE” value [4] was 113.33 u/L. For the same compound, the CREATININE [4] was 0.57 mg/dL, the GLUCOSE [4] was 167 mg/dL and the PHOSPHORUS [4] was 11.77 mg/dL. The POTASSIUM [4] was 7.4 MEQ/L, the SODIUM [4] was 151 MEQ/L and the “TOTAL BILIRUBIN” value [4] was 0.4 mg/dL. The “TOTAL PROTEIN” value [4] was 6.53 G/DL, the BASOPHIL [5] was 0.3% and the EOSINOPHIL [5] was 0.23%. The “ERYTHROCYTE COUNT” value [5] was 7.32 x10E6/uL, the HEMATOCRIT [5] was 46.8% and the HEMOGLOBIN [5] was 15 G/DL. For the same compound, the “LEUKOCYTE COUNT” value [5] was 13.73 x10E3/uL, the LYMPHOCYTE [5] was 85.93% and the “MEAN CORPUSCULAR HEMOGLOBIN” value [5] was 20.53 pg. For the same compound, the “MEAN CORPUSCULAR HEMOGLOBIN CONCENTRATION” value [5] was 32.13 G/DL, the “MEAN CORPUSCULAR VOLUME” value [5] was 63.97 fL and the MONOCYTE [5] was 2.43%. For the same compound, the NEUTROPHIL [5] was 9.77%, the “PLATELET COUNT” value [5] was 1394 x10E3/uL and the “ALANINE AMINOTRANSFERASE” value [5] was 25.33 u/L. For the same compound, the ALBUMIN [5] was 3.93 G/DL, the “ALKALINE PHOSPHATASE” value [5] was 316.67 u/L and the “ASPARTATE AMINOTRANSFERASE” value [5] was 60.33 u/L. The “BLOOD UREA NITROGEN” value [5] was 13.67 mg/dL, the CHLORIDE [5] was 96 MEQ/L and the CHOLESTEROL [5] was 34 mg/dL. For the same compound, the “CREATINE PHOSPHOKINASE” value [5] was 152 u/L, the CREATININE [5] was 0.43 mg/dL and the GLUCOSE [5] was 166.67 mg/dL. For the same compound, the PHOSPHORUS [5] was 12.2 mg/dL, the POTASSIUM [5] was 6.83 MEQ/L and the SODIUM [5] was 142 MEQ/L. For the same compound, the “TOTAL BILIRUBIN” value [5] was 0.3 mg/dL, the “TOTAL PROTEIN” value [5] was 7.17 G/DL and the BASOPHIL [6] was 0.93%. The EOSINOPHIL [6] was 0.27%, the “ERYTHROCYTE COUNT” value [6] was 7.53 x10E6/uL and the HEMATOCRIT [6] was 48.07%. For the same compound, the HEMOGLOBIN [6] was 14.97 G/DL, the “LEUKOCYTE COUNT” value [6] was 7.76 x10E3/uL and the LYMPHOCYTE [6] was 80.6%. The “MEAN CORPUSCULAR HEMOGLOBIN” value [6] was 19.97 pg, the “MEAN CORPUSCULAR HEMOGLOBIN CONCENTRATION” value [6] was 31.2 G/DL and the “MEAN CORPUSCULAR VOLUME” value [6] was 63.93 fL. The MONOCYTE [6] was 3.3%, the NEUTROPHIL [6] was 13.73% and the “PLATELET COUNT” value [6] was 1362.33 x10E3/uL. The “ALANINE AMINOTRANSFERASE” value [6] was 31.67 u/L, the ALBUMIN [6] was 3.73 G/DL and the “ALKALINE PHOSPHATASE” value [6] was 496 u/L. For the same compound, the “ASPARTATE AMINOTRANSFERASE” value [6] was 57.33 u/L, the “BLOOD UREA NITROGEN” value [6] was 11 mg/dL and the CHLORIDE [6] was 105.67 MEQ/L. The CHOLESTEROL [6] was 35.33 mg/dL, the “CREATINE PHOSPHOKINASE” value [6] was 132.67 u/L and the CREATININE [6] was 0.57 mg/dL. The GLUCOSE [6] was 185.67 mg/dL, the PHOSPHORUS [6] was 13.8 mg/dL and the POTASSIUM [6] was 7.47 MEQ/L. The SODIUM [6] was 151.33 MEQ/L, the “TOTAL BILIRUBIN” value [6] was 0.33 mg/dL and the “TOTAL PROTEIN” value [6] was 6.83 G/DL.
